Patent US20030055065A1, “Tricyclic amide and urea compounds useful for inhibition of G-protein function and for treatment of proliferative diseases” (priority 1993, published 2003)

Biological target: T1, farnesyl protein transferase (FPT), partially purified from rat brain (Rattus norvegicus, UniProt Q02293+Q04631)
T1 construct: were partially purified from rat brain by ammonium sulfate fractionation followed by Q-Sepharose
Experiment: Inhibition of farnesyl protein transferase (transfer of [3H]farnesyl to Ras-CVLS)
Type: biochemical
Settings: (1.3) μM
Procedure: 1. In vitro enzyme assays: Inhibition of farnesyl protein transferase and geranylgeranyl protein transferase.
Human farnesyl protein transferase was also expressed in E. coli, using cDNA clones encoding both the α and β subunits. […] Human farnesyl protein transferase was partially-purified from the soluble protein fraction of E. coli as described above. […] Two forms of val^12-Ha-Ras protein were prepared as substrates for these enzymes, differing in their carboxy terminal sequence. One form terminated in cysteine-valine-leucine-serine (Ras-CVLS) the other in cystein-valine-leucine-leucine (Ras-CVLL). Ras-CVLS is a substrate for the farnesyl protein transferase while Ras-CVLL is a substrate for geranylgeranyl protein transferase I. The cDNAs encoding these proteins were constructed so that the proteins contain an amino-terminal extension of 6 histidine residues. Both proteins were expressed in Escherichia coli and purified using metal chelate affinity chromatography. The radiolabelled isoprenyl pyrophosphate substrates, [^3H]farnesyl pyrophosphate and [3H]geranylgeranyl pyrophosphate, were purchased from DuPont/New England Nuclear.
The reaction was allowed to proceed for 30 minutes at room temperature and then stopped with 0.5 ml of 4% sodium dodecyl sulfate (SDS) followed by 0.5 ml of cold 30% trichloracetic acid (TCA). Samples were allowed to sit on ice for 45 minutes and precipitated Ras protein was then collected on GF/C filter paper mats using a Brandel cell harvester. […] Percent inhibition was calculated relative to the DMSO vehicle control.

T1 sequence (Q02293 whole entry, one chain of several): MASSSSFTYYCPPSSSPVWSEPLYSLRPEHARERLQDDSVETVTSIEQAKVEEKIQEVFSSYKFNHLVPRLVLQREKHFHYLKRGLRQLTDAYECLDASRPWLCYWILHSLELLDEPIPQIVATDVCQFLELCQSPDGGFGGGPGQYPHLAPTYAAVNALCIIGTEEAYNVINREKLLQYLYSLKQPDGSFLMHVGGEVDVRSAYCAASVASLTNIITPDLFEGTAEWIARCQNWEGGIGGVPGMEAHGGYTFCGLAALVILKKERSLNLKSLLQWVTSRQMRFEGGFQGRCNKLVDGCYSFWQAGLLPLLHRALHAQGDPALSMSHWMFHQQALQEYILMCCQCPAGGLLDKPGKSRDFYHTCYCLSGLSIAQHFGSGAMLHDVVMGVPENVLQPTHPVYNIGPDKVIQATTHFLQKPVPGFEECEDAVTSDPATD

FPT inhibition at the concentration in parentheses | SMILES
44(1.3) | O=C(Cc1cc[n+]([O-])cc1)N1CCC(=C2c3ccc(Cl)cc3CCc3cc(F)cnc32)CC1 [Example 411-N]

Same assay, conditions: (4) μM

FPT inhibition at the concentration in parentheses | SMILES
39 (4) | CC(C)(C(=O)N1CCC(=C2c3ccc(Cl)cc3CCc3cc(F)cnc32)CC1)c1cc[n+]([O-])cc1 [Example 411-O]

Same assay, conditions: Ras-CVLS farnesylation, partially purified rat brain FPT; read-out: FPT IC50

IC50 [µM] | SMILES
4.9 | O=C(Cc1cccnc1)N1CCC(=C2c3ccccc3CCc3cccnc32)CC1 [Example 323]
15.7 | CC(=O)N1CCC(=C2c3ccccc3CCc3c2[nH]c2ccccc32)CC1 [Example 140]
11.4 | Cc1cc(C(=O)N2CCC(=C3c4ccc(Cl)cc4CCc4cccnc43)CC2)cc(Cl)[n+]1[O-] [Example 37]
3.12 | O=C(Cc1cccnc1)N1CCC(=C2c3ccc(Cl)cc3CCc3cc(O)cnc32)CC1 [Example 240]
7.4 | CC(C)(C)OC(=O)N1CCC(CC(=O)N2CCN(C3c4ccc(Cl)cc4CCc4cccnc43)CC2)CC1 (stereo not shown) [Example 193]
10.8 | CC(=O)N1CCN(C2c3ccc(Cl)cc3CCc3cccnc32)CC1C (stereo not shown) [Example 149]
2.3 | COC(=O)CSc1ccnc2c1CCc1cc(Cl)ccc1C2=C1CCN(C(=O)Cc2cccnc2)CC1 [Example 257]
1.17 | CSc1cc(CC(=O)N2CCC(=C3c4ccc(Cl)cc4CCc4cc(Br)cnc43)CC2)ccn1 [Example 410-V]
9.8 | O=C(Nc1cccnc1)N1CCC(=C2c3ccc(Cl)cc3CCc3c(O)ccnc32)CC1 [Example 263]
2.3 | O=C(Cc1ccncc1)N1CCC(=C2c3ccncc3CCc3cc(Cl)ccc32)CC1 [Example 5.39]
1.9 | CN1CCN(CC(=O)N2CCC(=C3c4ccc(Cl)cc4CCc4cc(Br)cnc43)CC2)CC1 [Example 410-J]
5.1 | O=C(C1CCCO1)N1CCC(=C2c3ccc(Cl)cc3CCc3cccnc32)CC1 (stereo not shown) [Example 19A]
0.7 | CC1(C2CCN(C(=O)Cc3ccncc3)CC2)c2ccc(Cl)cc2CCc2cccnc21 (stereo not shown) [Example 410]
8.8 | CC(C)(C)OC(=O)NCC(=O)N1CCC(=C2c3ccc(Cl)cc3CCc3cccnc32)CC1 [Example 112]
4.7 | O=C(C1CCC(=NO)CC1)N1CCC(=C2c3ccc(Cl)cc3CCc3cccnc32)CC1 (stereo not shown) [Example 104]
7.93 | O=C(Cc1ccc(O)cc1)NCC(=O)N1CCN(C2c3ccc(Cl)cc3CCc3cccnc32)CC1 (stereo not shown) [Example 210]
5.9 | O=C(c1ccoc1)N1CCC(=C2c3ccc(Cl)cc3CCc3cccnc32)CC1 [Example 55]
4.5 | O=C(Cc1ccncc1)N1CCC(=C2c3ccc(Cl)cc3CC(O)c3cccnc32)CC1 (stereo not shown) [Example 282]

IC50 [µM] | SMILES
1.7 | CC1(C2CCN(C(=O)Cc3cc[n+]([O-])cc3)CC2)c2ccc(Cl)cc2CCc2cccnc21 (stereo not shown) [Example 401-A]
2.2 | CC1(C2=CCN(C(=O)Cc3ccncc3)CC2)c2ccc(Cl)cc2CCc2cccnc21 (stereo not shown) [Example 410-F]
3.71 | O=C(Cc1csc2ccccc12)N1CCC(=C2c3ccc(Cl)cc3CCc3cccnc32)CC1 [Example 221]
5 | NC1CCC(C(=O)N2CCC(=C3c4ccc(Cl)cc4CCc4cccnc43)CC2)CC1 (stereo not shown) [Example 105]
15 | O=C(c1ccc(=O)[nH]c1)N1CCC(=C2c3ccccc3CCc3ccccc32)CC1 [Example 152]
4.4 | O=C(/C=C/c1ccncc1)N1CCC(=C2c3ccc(Cl)cc3CCc3cccnc32)CC1 [Example 99]
1.34 | CC(C)(C(=O)N1CCC(=C2c3ccc(Cl)cc3CCc3cccnc32)CC1)c1ccncc1 [Example 299]
> 10 | COCC(=O)N1CCC(=C2c3ccc(F)cc3CCc3cccnc32)CC1 [Example 145]
14.2 | C=CC(=O)N1CCC(=C2c3ccc(Cl)cc3CCc3cccnc32)CC1 [Example 115]
23 | O=C(Cc1cccnc1)N1CCC(=C2c3ccc(Cl)cc3CC(O)c3cccnc32)CC1 (stereo not shown) [Example 280]
4.6 | O=C(N[C@@H]1C[C@H]1c1ccccc1)N1CCC(=C2c3ccc(Cl)cc3CCc3cccnc32)CC1 [Example 101]
6.2 | COc1cc(C(=O)N2CCC(=C3c4ccc(Cl)cc4CCc4cccnc43)CC2)cc(OC)c1O [Example 24]
1.89 | CSCC[C@H](N)C(=O)N1CCC(CC(=O)N2CCN(C3c4ccc(Cl)cc4CCc4cccnc43)CC2)CC1 (stereo partly shown) [Example 433-B]
1.8 | O=C(Cc1ccnc(-n2ccnc2)c1)N1CCC(=C2c3ccc(Cl)cc3CCc3cc(Br)cnc32)CC1 [Example 410-T]
10.8 | O=C(Cc1cccnc1)N1CCC(=C2c3ccc(Cl)cc3CCc3c(SCc4ccccc4)ccnc32)CC1 [Example 258]
0.82 | O=C(Nc1cccnc1)N1CCC(=C2c3ccc(Cl)cc3CCc3c(On4nnc5ccccc54)ccnc32)CC1 [Example 262]
1.1 | N[C@@H](CO)C(=O)N1CCC(CC(=O)N2CCN(C3c4ccc(Cl)cc4CCc4cccnc43)CC2)CC1 (stereo partly shown) [Example 433-A]

SMILES | IC50 [µM]
O=C(c1ccco1)N1CCC(=C2c3ccc(Cl)cc3CCc3cccnc32)CC1 [Example 52] | 4.9
CCOC(=O)C(=O)N1CCC(=C2c3ccc(Cl)cc3CCc3cccnc32)CC1 [Example 56] | 7.9
O=C(c1cc[nH]c1)N1CCC(=C2c3ccc(Cl)cc3CCc3cccnc32)CC1 [Example 16] | 4.8
O=C(c1cc([N+](=O)[O-])c(O)c([N+](=O)[O-])c1)N1CCC(=C2c3ccc(Cl)cc3CCc3cccnc32)CC1 [Example 31] | 8.3
O=C(c1cccnc1)N1CCC(=C2c3ccc(Cl)cc3CCc3cccnc32)CC1 [Example 26] | 6.3
O=C(c1cc[n+]([O-])c2ccccc12)N1CCC(=C2c3ccc(Cl)cc3CCc3cccnc32)CC1 [Example 34] | 9.8
COCC(=O)N1CCC(=C2c3ccc(Cl)cc3CCc3cccnc32)CC1 [Example 58] | 14.4
O=C(c1cn[nH]c1)N1CCC(=C2c3ccc(Cl)cc3CCc3cccnc32)CC1 [Example 18] | 4.9

Same assay, conditions: at 10 μM

FPT inhibition [% @] | SMILES
34 | O=C([C@H](Cc1ccccc1)N1C(=O)c2ccccc2C1=O)N1CCN(C2c3ccc(Cl)cc3CCc3cccnc32)CC1 (stereo partly shown) [Example 216]

Same assay, conditions: at 11 μM

SMILES | FPT inhibition [% at 11 μM]
COc1cc(C(=O)N2CCC(=C3c4ccc(Cl)cc4CCc4cccnc43)CC2)cc(OC)c1OC [Example 119] | 41

Same assay, conditions: at 14.1 μM

FPT inhibition [% at 14.1 μM] | SMILES
16 | CC(=O)N1CCC(=C2c3ccc(Cl)cc3CCc3cc(C(C)(C)C)c[n+]([O-])c32)CC1 [Example 133]

Same assay, conditions: at 14.2 μM

FPT inhibition [% at 14.2 μM] | SMILES
25 | COc1cc[n+]([O-])c2c1CCc1cc(Cl)ccc1C2=C1CCN(C(C)=O)CC1 [Example 74A]

Same assay, conditions: at 15.6 μM

FPT inhibition [% at 15.6 μM] | SMILES
27 | CC(=O)N1CCC(=C2c3ccc(Cl)cc3CCc3ccc[n+]([O-])c32)CC1 [Example 73]

Same assay, conditions: at 16.3 μM

FPT inhibition [% at 16.3 μM] | SMILES
15 | CC(=O)N1CCC(=C2c3ccc(Cl)cc3CC(C)c3cccnc32)CC1 (stereo not shown) [Example 137]

Same assay, conditions: at 16.4 μM

FPT inhibition [% at 16.4 μM] | SMILES
1 | CC(=O)N1CCC(=C2c3ccc(Cl)cc3CCc3ccc(C)nc32)CC1 [Example 63]

Same assay, conditions: at 46 μM

FPT inhibition [% at 46 μM] | SMILES
47 | O=C(c1cc[n+]([O-])cc1)N1CCC(=C2c3ccncc3CCc3cc(Cl)ccc32)CC1 [Example 144a]

Same assay, conditions: at 50 μM

FPT inhibition [% at 50 μM] | SMILES
30 | CC(=O)N1CCC(=C2c3ccc(Cl)cc3CCc3ncccc32)CC1 [Example 144]

Same assay, conditions: enzyme inhibition; read-out: FPT IC50

IC50 [µM] | SMILES
1.7 | CN1CCCC(CC(=O)N2CCN([C@@H]3c4ccc(Cl)cc4CCc4cccnc43)CC2)C1 (stereo partly shown) [Example 425-R]
0.24 | O=C(Nc1ccc[n+]([O-])c1)N1CCN(C2c3ccc(Cl)cc3CCc3cc(Br)cnc32)CC1 (stereo not shown) [Example 427-C]
2.2 | O=C(Nc1ccc[n+]([O-])c1)N1CCN(C2c3ccc(Cl)cc3CCc3cccnc32)CC1 (stereo not shown) [Example 427-A]
~2 | O=C(Cc1cc[n+]([O-])cc1)N1CCC(=C2c3ccc(Cl)cc3CCc3cc(F)cnc32)CC1 [Example 411-N]
1.3 | COC(=O)N1CCC(CC(=O)N2CCN(C3c4ccc(Cl)cc4CCc4cccnc43)CC2)CC1 (stereo not shown) [Example 430]
1.05 | CNC(=O)N1CCC(CC(=O)N2CCN(C3c4ccc(Cl)cc4CCc4cccnc43)CC2)CC1 (stereo not shown) [Example 431-A]
0.6 | CN1CCCC(CC(=O)N2CCN([C@H]3c4ccc(Cl)cc4CCc4cccnc43)CC2)C1 (stereo partly shown) [Example 425-S]
0.82 | NC(=O)N1CCC(CC(=O)N2CCN(C3c4ccc(Cl)cc4CCc4cccnc43)CC2)CC1 (stereo not shown) [Example 431]
0.66 | CN1CCCC(NC(=O)N2CCN(C3c4ccc(Cl)cc4CCc4cccnc43)CC2)C1 (stereo not shown) [Example 432]
1.1 | O=C(CC1CCCNC1)N1CCN(C2c3ccc(Cl)cc3CCc3cccnc32)CC1 (stereo not shown) [Example 428-A]
1.26 | CC(C)(C(=O)N1CCN(C2c3ccc(Cl)cc3CCc3cccnc32)CC1)c1ccc[n+]([O-])c1 (stereo not shown) [Example 425-C]
1.4 | N#Cc1cnc2c(c1)CCc1cc(Cl)ccc1C2=C1CCN(C(=O)Cc2ccncc2)CC1 [Example 406]
0.21 | O=C(Nc1cc[n+]([O-])cc1)N1CCN(C2c3ccc(Cl)cc3CCc3cc(Br)cnc32)CC1 (stereo not shown) [Example 427-B]
0.6 | O=C(Cc1cc[n+]([O-])cc1)N1CCC(=C2c3ccc(Cl)cc3CCc3cc(Cl)ccc32)CC1 [Example 422]
0.88 | CNC(=S)N1CCC(CC(=O)N2CCN(C3c4ccc(Cl)cc4CCc4cccnc43)CC2)CC1 (stereo not shown) [Example 431-E]
~5 | CC(C)(C(=O)N1CCC(=C2c3ccc(Cl)cc3CCc3cc(F)cnc32)CC1)c1cc[n+]([O-])cc1 [Example 411-O]
